Test results published in patent publication US12285407B2, “Bis-indolylmethane derivatives and uses thereof” (The University of The West Indies, priority 2018, dated 2025).
Like-named read-outs stand apart in the source and are kept apart here.

Key:
Klebsiella pneumoniae = experiment: Adjuvant broth microdilution (antibiotic MIC with SP-BIM at 50 μg/mL); assay type: cell-based; details: Klebsiella pneumoniae; antibiotic alone; Table 7; read-out: MIC of antibiotic, No compound
MRSA = experiment: as above; assay type: cell-based, Staphylococcus aureus; details: Staphylococcus aureus, antibiotic alone, Table 4, read-out: MIC of antibiotic, No compound
[1] = test system: Pseudomonas aeruginosa ATCC 27853; experiment: Broth microdilution MIC of SP-BIMs; assay type: cell-based
[2] = test system: Escherichia coli ATCC 35218; experiment: Broth microdilution MIC of SP-BIMs; assay type: cell-based
[3] = test system: Streptococcus pyogenes ATCC 19615; experiment: Broth microdilution MIC of SP-BIMs; assay type: cell-based
[4] = test system: Candida albicans ATCC 22972; experiment: Broth microdilution MIC of SP-BIMs; assay type: cell-based
[5] = test system: Staphylococcus aureus ATCC 12600; experiment: Broth microdilution MIC of SP-BIMs; assay type: cell-based
[6] = test system: Corynebacterium diphtheriae ATCC 27010; experiment: Broth microdilution MIC of SP-BIMs; assay type: cell-based
[7] = test system: Enterococcus faecium ATCC 19434; experiment: Broth microdilution MIC of SP-BIMs; assay type: cell-based
Streptococcus pneumoniae = experiment: Adjuvant broth microdilution (antibiotic MIC with SP-BIM at 50 μg/mL); assay type: cell-based; details: Streptococcus pneumoniae, Streptococcus pneumonia, SP-BIM at 50 μg mL^−1
[8] = test system: Klebsiella pneumoniae ATCC 49472; experiment: Broth microdilution MIC of SP-BIMs; assay type: cell-based
[9] = test system: Salmonella typhimurium ATCC 14028; experiment: Broth microdilution MIC of SP-BIMs; assay type: cell-based; details: Salmonella enterica, read-out: MIC Salmonella tvpkimurium ATCC 14028
Excerpt: Reference microorganisms used in this study included: Bacillus cereus (American Type Culture Collection (ATCC) No. 14579), Streptococcus pyogenes (ATCC No. 19615), Staphylococcus aureus (ATCC No. 12600), Enterococcus faecium (ATCC No. 19434), Corynebacterium diphtheriae (ATCC No. 27010), Escherichia coli (ATCC No. 35218), Salmonella typhimurium (ATCC No. 14028), Pseudomonas aeruginosa (ATCC No. 27853), Klebsiella pneumoniae (ATCC No. 49472), and Candida albicans (ATCC No. 22972).
Prior to each experiment, cultures were streaked onto clean BHI agar plates and incubated at 35° C. for 24 hours. Colonies of the respective cultures were selected and inoculated in phosphate buffer saline (pH 7.5) to a 0.5 McFarland turbidity standard (equivalent to 10^8 CFU mL^−1). The bacterial suspension was then diluted 1:100 in cation adjusted Mueller Hinton Broth (ca-MHB) (Oxoid Ltd, Basingstoke, Hampshire, England).
Stock solutions (50 mg mL^−1) of the SP-BIM test compounds were prepared in DMSO and stored at 4° C. Working preparations of each compound was made up to 1 mg/mL in sterile deionized water with a final DMSO concentration of 10%.
To assess the antibiotic properties of the library of SP-BIMs, the broth microdilution assay was performed in 96-well microplates according to the Clinical and Laboratory Standards Institute 2014 Guidelines (CLSI 2014). The broth microdilution assay was used to determine the minimum inhibitory concentration (MIC). […] Bacterial cells (˜10^6 CFU mL^−1) were inoculated into cation adjusted-Mueller Hinton broth containing the test compound in a twofold serial dilution ranging between 250 μg mL^−1 and 0.02 μg mL^−1. Plates were incubated at 35° C. for 18 hours after which 50 μL of 5% resazurin solution was added to each well. Resazurin is a blue dye which, upon reduction by living cells, turns to a pink resorufin product. Plates were shaken for 1 hour after the addition of the dye. The MIC was recorded as the well with the lowest concentration of test compound where no color change was observed.

[10] = test system: Bacillus cereus ATCC 14579; experiment: Broth microdilution MIC of SP-BIMs; assay type: cell-based
[11] = ATCC27853, SP-BIM alone, read-out: MIC Pseudomonas aeruginosa ATCC 27853
[12] = ATCC35218, SP-BIM alone, read-out: MIC Escherichia coli ATCC 35218
[13] = ATCC19615, SP-BIM alone, read-out: MIC Streptococcus pyogenes ATCC 19615
[14] = ATCC22972, SP-BIM alone, read-out: MIC Candida albicans ATCC 22972
[15] = ATCC12600, SP-BIM alone, read-out: MIC Staphylococcus aureus ATCC 12600
[16] = ATCC27010, SP-BIM alone, read-out: MIC Corynebacterium diphtheriae ATCC 27010
[17] = ATCC19434, SP-BIM alone, read-out: MIC Enterococcus faecium ATCC 19434
[18] = read-out: MIC of Kanamvcin with SP-BIM
[19] = read-out: MIC of Vancomvcin with SP-BIM
[20] = ATCC49472, SP-BIM alone, read-out: MIC Klebisella pneumoniae ATCC 49472
[21] = ATCC14579, SP-BIM alone, read-out: MIC Bacillus cereus ATCC 14579

SMILES	MIC [1, 11]	MIC [2, 12]	MIC [3, 13]	MIC [4, 14]	MIC [5, 15]	MIC [6, 16]	MIC [7, 17]	MIC (Streptococcus pneumoniae; [18])	MIC (Streptococcus pneumoniae; [19])	MIC [8, 20]	MIC [9]	MIC [10, 21]	other results
C[C@@H](O)[C@H]1C(=O)N2C(C(=O)O)=C(SCCN=CN)C[C@H]12 [Imipenem, imipenem]	–	–	–	–	–	–	–	–	–	–	–	–	MIC (Klebsiella pneumoniae): 2 µg/mL; MIC (MRSA): 4 µg/mL
CN(C)c1ccc(C(c2c[nH]c3ccccc23)c2c[nH]c3ccccc23)cc1 [SP-BIM 2, [bis(indoly-3-yl)-4-dimethylaminophenyl]methane]	250 µg/mL	> 250 µg/mL	> 250 µg/mL	250 µg/mL	> 250 µg/mL	> 250 µg/mL	> 250 µg/mL	125 µg/mL	1 µg/mL	> 250 µg/mL	250 µg/mL	> 250 µg/mL	–
CC(C)(C)c1cc(C(c2c[nH]c3ccccc23)c2c[nH]c3ccccc23)c(O)c(C(C)(C)C)c1 [SP-BIM 3, [bis(indol-3-yl)-3,5-di-tert-butyl-2-hydroxyphenyl]methane]	250 µg/mL	> 250 µg/mL	> 250 µg/mL	250 µg/mL	> 250 µg/mL	> 250 µg/mL	> 250 µg/mL	125 µg/mL	1 µg/mL	> 250 µg/mL	250 µg/mL	> 250 µg/mL	–
O=[N+]([O-])c1cccc(C(c2c[nH]c3ccccc23)c2c[nH]c3ccccc23)c1 [SP-BIM 5, [bis(indol-3-yl)-3-nitrophenyl]methane]	250 µg/mL	> 250 µg/mL	> 250 µg/mL	250 µg/mL	> 250 µg/mL	> 250 µg/mL	> 250 µg/mL	125 µg/mL	1 µg/mL	> 250 µg/mL	250 µg/mL	> 250 µg/mL	–
c1cc(C(c2c[nH]c3ccccc23)c2c[nH]c3ccccc23)cc(C(c2c[nH]c3ccccc23)c2c[nH]c3ccccc23)c1 [SP-BIM 7, 1,3-bis[bis(indoly-3-yl)methyl]benzene]	250 µg/mL	> 250 µg/mL	> 250 µg/mL	250 µg/mL	> 250 µg/mL	> 250 µg/mL	> 250 µg/mL	125 µg/mL	1 µg/mL	> 250 µg/mL	250 µg/mL	> 250 µg/mL	–
O=[N+]([O-])c1ccc(C(c2c[nH]c3ccccc23)c2c[nH]c3ccccc23)cc1 [SP-BIM 8]	250 µg/mL	> 250 µg/mL	> 250 µg/mL	250 µg/mL	> 250 µg/mL	> 250 µg/mL	> 250 µg/mL	125 µg/mL	1 µg/mL	> 250 µg/mL	250 µg/mL	> 250 µg/mL	–
COc1ccccc1C(c1c[nH]c2ccccc12)c1c[nH]c2ccccc12 [SP-BIM 12, bis(indol-3-yl)-2-methoxyphenylmethane]	250 µg/mL	> 250 µg/mL	> 250 µg/mL	250 µg/mL	> 250 µg/mL	> 250 µg/mL	> 250 µg/mL	125 µg/mL	1 µg/mL	> 250 µg/mL	250 µg/mL	> 250 µg/mL	–
c1ccc2c(c1)cc(C(c1c[nH]c3ccccc13)c1c[nH]c3ccccc13)c1ccccc12 [SP-BIM 14, bis[indol-3-yl)-phenanthren-9-ylmethane]	–	–	–	–	–	–	–	125 µg/mL	1 µg/mL	–	250 µg/mL	–	MIC ([1]; ATCC27853, read-out: MIC Pseudomonas aeruginosa ATCC 27853): 250 µg/mL; MIC ([2]; ATCC35218, read-out: MIC Escherichia coli ATCC 35218): > 250 µg/mL; MIC ([3]; ATCC19615, read-out: MIC Streptococcus pyogenes ATCC 19615): 125 µg/mL; MIC ([4]; ATCC22972, read-out: MIC Candida albicans ATCC 22972): 250 µg/mL; MIC ([5]; ATCC12600, read-out: MIC Staphylococcus aureus ATCC 12600): > 250 µg/mL; MIC ([6]; ATCC27010, read-out: MIC Corynebacterium diphtheriae ATCC 27010): > 250 µg/mL; MIC ([7]; ATCC19434, read-out: MIC Enterococcus faecium ATCC 19434): 125 µg/mL; MIC ([8]; ATCC49472, read-out: MIC Klebisella pneumoniae ATCC 49472): > 250 µg/mL; MIC ([10]; ATCC14579, read-out: MIC Bacillus cereus ATCC 14579): 125 µg/mL
Oc1cc(Br)ccc1[C+](c1c[nH]c2ccccc12)c1c[nH]c2ccccc12 [SP-BIM 17, 4-bromo-2-hydroxyphenylbis(indol-3-yl)methylium]	250 µg/mL	> 250 µg/mL	> 250 µg/mL	250 µg/mL	> 250 µg/mL	> 250 µg/mL	> 250 µg/mL	125 µg/mL	1 µg/mL	> 250 µg/mL	250 µg/mL	> 250 µg/mL	–
COc1ccc2c(C(c3cccc(O)c3)c3c[nH]c4cc(OC)ccc34)c[nH]c2c1 [SP-BIM 19, bis(6-methoxyindoly-3-yl)-3-hydroxyphenylmethane]	250 µg/mL	> 250 µg/mL	> 250 µg/mL	250 µg/mL	> 250 µg/mL	> 250 µg/mL	> 250 µg/mL	125 µg/mL	1 µg/mL	> 250 µg/mL	250 µg/mL	> 250 µg/mL	–
COc1ccc2c(C(c3ccc([N+](=O)[O-])cc3)c3c[nH]c4cc(OC)ccc34)c[nH]c2c1 [SP-BIM 20, bis(6-methoxyindol-3-yl)-4-nitrophenylmethane]	250 µg/mL	> 250 µg/mL	> 250 µg/mL	250 µg/mL	> 250 µg/mL	> 250 µg/mL	> 250 µg/mL	125 µg/mL	1 µg/mL	> 250 µg/mL	250 µg/mL	> 25 µg/mL	–
